In general, DC50 refers to the concentration at which degradation of the target reaches its halfway point.

We go through 11 molecules from patent publication US20230295197A1, “STAT5 and STAT6 Degraders and Uses Thereof” (REGENTS OF THE UNIVERSITY OF MICHICAN, priority 2022, published 2023).

Like-named read-outs stand apart in the source and are kept apart here. Bounds are passed on as bounds.

For this assay, the system named is STAT5. In words: Immunoblotting (Western blot) analysis of STAT5 degradation efficiency of degraders in treated cells. Format: cell-based. As to the method: Evaluation of the degradation efficiency of degraders may be accomplished by immunoblotting analysis. The representative general protocol is the following:
Cells are maintained in the appropriate culture medium with 10% FBS at 37° C. and an atmosphere of 5% CO2. Cell lines are used within three months of thawing fresh vials. Cells are lysed 1× Cell Lysis Buffer (Cell Signaling Technology, #9803), resolved by SDS-PAGE NuPAGE gel (Thermo Fisher Scientific), and transferred to a PVDF membrane (Millipore). Membranes are blocked using Odyssey TBS Blocker Buffer (LI-COR). IRDye 680RD and 800CW Dye-labeled secondary antibodies (LI-COR) are used. The washed membranes are scanned using Odyssey CLx imager (LI-COR). The intensity of Western blot signaling is quantitated using the Odyssey software. Primary antibodies used are: STAT5 Rabbit mAb (Cell Signaling Technology, #94205), STAT6 Rabbit mAb (Cell Signaling Technology, #5397) and GAPDH mouse monoclonal antibody (Santa Cruz Biotechnology, sc-47724).
To evaluate the degradation efficiency of degraders, immunoblotting analysis was performed. The general protocol is the following.
About 1 million cells for each data point were treated with compounds at indicated concentrations and durations. Untreated and treated cells in cell culture medium were transferred into tubes, followed by centrifugation at 3,000 rpm and 4° C. for 6 min Supernatants were removed from tubes and radioimmunoprecipitation assay (RIPA) lysis buffer supplemented with 1% protease inhibitor cocktail (Fisher Scientific cat. PI87786) and phosphatase inhibitor (Roche cat. 04906837001) were added to tubes containing the remaining cell pellets. The tubes were then left on ice for 30 min and placed in a −80° C. freezer. Subsequently they were thawed in 37° C. water, then centrifuged at 14,000 rpm for 15 min and the cell lysates transferred to new tubes. The concentration of total proteins in each tube was calculated using the Pierce BCA protein Assay kit (cat. 23225). Based on the calculated protein concentration, cell lysates containing approximately the same amount of proteins were transferred to new tubes, then distilled water and 4× Protein Sample Loading Buffer for Western Blots (LI-COR cat. 928-40004) supplemented with 20% of mercaptoethanol (Sigma Aldrich cat. M6250) were added on ice. The cell lysates were then reduced and denatured at 95° C. for 5 min. From the tubes containing cell lysates an equal amount of protein samples (20-40 μg) was loaded into precast 8%, 10%, 4%-12%, or 4%-20% Tris-glycine gels (Novex) filled with Tris-glycine SDS running buffer. After the proteins were resolved, they were transferred onto Immobile-FL PVDF Membrane (Millipore Sigma cat. IPFL00010), using Mini Trans-Blot Electrophoretic Transfer Cell (Bio-Rad 1703930). The membranes were blocked with Intercept Blocking Buffer (LI-COR cat. 927-70001) in LI-COR Western Blot boxes for 1 h at rt. The membranes were washed with 1× Tris-buffered saline-Tween-20 (TBST, 1× solution was made from 20×TBST solution, ThermoFisher Scientific cat. 28360) for 5 min 4 times. The membranes were incubated overnight at 4° C. in Intercept Blocking Buffer supplemented with primary antibodies (normally antibody:buffer 1:1000) and Tween-20. The membranes were washed with TBST for 5 min 4 times and were incubated with Intercept Blocking Buffer supplemented with IRDye 800CE Secondary Antibodies, IRDye 680RD Secondary Antibodies (LI-COR biosciences), Tween-20, and 10% SDS solution, for 1 h at rt. The membranes were then washed with TBST for 5 min 4 times and rinsed with deionized water before drying and scanning with Odyssey Dlx Amazing System (LI-COR). The immunoblots were finally quantified by the software.
A general note: Immunoblotting shows a protein as a band on a membrane.

[1] abbreviates: MOLM-16 cells, numeric bound, read-out: DC50 S5 MOLM-16.
The mark [2] stands for this setting: SKNO1 cells, read-out: DC50 S5 SKNO1.
Where [3] appears, read: KU-812 cells, read-out: DC50 S5 KU-812.

For the molecule `CC(C)(C)c1ccc(N(CCC(=O)NCCCC#Cc2cccc3c2CN(C2CCC(=O)NC2=O)C3=O)C(=O)[C@@H]2CCCN2C(=O)[C@@H](NC(=O)c2cc3cc(C(F)(F)P(=O)(O)O)ccc3s2)C(C)(C)C)cc1` (stereo partly drawn) [Compound 647, ((2-(((2S)-1-((2S)-2-((4-(tert-butyl)phenyl)(3-((5-(2-(2,6-dioxopiperidin-3-yl)-1-oxoisoindolin-4-yl)pent-4-yn-1-yl)amino)-3-oxopropyl)carbamoyl)pyrrolidin-1-yl)-3,3-dimethyl-1-oxobutan-2-yl)carbamoyl)benzo[b]thiophen-5-yl)difluoromethyl)phosphonic acid], the DC50 was greater than 300 nM under setting [1] and 1000 to 10000 nM under setting [2]. Turning to `CCN1CC[C@H]2CC[C@@H](C(=O)N(CCC(=O)NCCC#Cc3cccc4c3CN(C3CCC(=O)NC3=O)C4=O)c3ccc(Br)cc3)N2C(=O)[C@@H](NC(=O)c2cc3cc(C(F)(F)P(=O)(O)O)ccc3s2)C1` (stereo partly drawn) [Compound 626, ((2-(((5S,8S,10aR)-8-((4-bromophenyl)(3-((4-(2-(2,6-dioxopiperidin-3-yl)-1-oxoisoindolin-4-yl)but-3-yn-1-yl)amino)-3-oxopropyl)carbamoyl)-3-ethyl-6-oxodecahydropyrrolo[1,2-a][1,5]diazocin-5-yl)carbamoyl)benzo[b]thiophen-5-yl)difluoromethyl)phosphonic acid], the DC50 under setting [1] was greater than 300 nM. Consider `CC(C)(C)[C@H](NC(=O)c1cc2cc(C(F)(F)P(=O)(O)O)ccc2s1)C(=O)N1CCC[C@H]1C(=O)N(CCC(=O)NCCCC#Cc1cccc2c1CN(C1CCC(=O)NC1=O)C2=O)c1cccc(-c2ccccc2)c1` (stereo partly drawn) [Compound 649, ((2-(((2S)-1-((2S)-2-([1,1′-biphenyl]-3-yl(3-((5-(2-(2,6-dioxopiperidin-3-yl)-1-oxoisoindolin-4-yl)pent-4-yn-1-yl)amino)-3-oxopropyl)carbamoyl)pyrrolidin-1-yl)-3,3-dimethyl-1-oxobutan-2-yl)carbamoyl)benzo[b]thiophen-5-yl)difluoromethyl)phosphonic acid], for which the DC50 reads like this: under setting [1], greater than 300 nM; under setting [2], 1000 to 10000 nM. For the molecule `CC(C)(C)[C@H](NC(=O)c1cc2cc(C(F)(F)P(=O)(O)O)ccc2s1)C(=O)N1C[C@@H](OCc2ccccc2)C[C@H]1C(=O)N(CCC(=O)NCCCC#Cc1cccc2c1CN(C1CCC(=O)NC1=O)C2=O)c1ccc(Br)cc1` (stereo partly drawn) [Compound 623, ((2-(((2S)-1-((2S,4S)-4-(benzyloxy)-2-((4-bromophenyl)(3-((5-(2-(2,6-dioxopiperidin-3-yl)-1-oxoisoindolin-4-yl)pent-4-yn-1-yl)amino)-3-oxopropyl)carbamoyl)pyrrolidin-1-yl)-3,3-dimethyl-1-oxobutan-2-yl)carbamoyl)benzo[b]thiophen-5-yl)difluoromethyl)phosphonic acid], the DC50 under setting [1] was greater than 300 nM. `CN(CCCC#Cc1cccc2c1CN(C1CCC(=O)NC1=O)C2=O)C(=O)CCN(C(=O)[C@@H]1CCCN1C(=O)[C@@H](NC(=O)c1cc2cc(C(F)(F)P(=O)(O)O)ccc2s1)C(C)(C)C)c1ccc2scnc2c1` (stereo partly drawn) [Compound 684, ((2-(((2S)-1-((2S)-2-(benzo[d]thiazol-5-yl(3-((5-(2-(2,6-dioxopiperidin-3-yl)-1-oxoisoindolin-4-yl)pent-4-yn-1-yl)(methyl)amino)-3-oxopropyl)carbamoyl)pyrrolidin-1-yl)-3,3-dimethyl-1-oxobutan-2-yl)carbamoyl)benzo[b]thiophen-5-yl)difluoromethyl)phosphonic acid]: the DC50 by setting is: under setting [3], 100 to 1000 nM; under setting [2], 100 to 1000 nM. Consider `CN(CCCC#Cc1cccc2c1CN(C1CCC(=O)NC1=O)C2=O)C(=O)CCN(C(=O)[C@@H]1CCCN1C(=O)[C@H](CCc1ccccc1)NC(=O)c1cc2cc(C(F)(F)P(=O)(O)O)ccc2s1)c1ccc(-c2nccs2)cc1` (stereo partly drawn) [Compound 682, ((2-(((2S)-1-((2S)-2-((3-((5-(2-(2,6-dioxopiperidin-3-yl)-1-oxoisoindolin-4-yl)pent-4-yn-1-yl)(methyl)amino)-3-oxopropyl)(4-(thiazol-2-yl)phenyl)carbamoyl)pyrrolidin-1-yl)-1-oxo-4-phenylbutan-2-yl)carbamoyl)benzo[b]thiophen-5-yl)difluoromethyl)phosphonic acid], for which the DC50 lay in the range of 100 to 1000 nM under setting [3] and 100 to 1000 nM under setting [2]. Turning to `CCN1CC[C@H]2CC[C@@H](C(=O)N(CCC(=O)N3CCC(C#Cc4cccc5c4CN(C4CCC(=O)NC4=O)C5=O)CC3)c3ccc(Br)cc3)N2C(=O)[C@@H](NC(=O)c2cc3cc(C(F)(F)P(=O)(O)O)ccc3s2)C1` (stereo partly drawn) [Compound 630, ((2-(((5S,8S,10aR)-8-((4-bromophenyl)(3-(4-((2-(2,6-dioxopiperidin-3-yl)-1-oxoisoindolin-4-yl)ethynyl)piperidin-1-yl)-3-oxopropyl)carbamoyl)-3-ethyl-6-oxodecahydropyrrolo[1,2-a][1,5]diazocin-5-yl)carbamoyl)benzo[b]thiophen-5-yl)difluoromethyl)phosphonic acid], the DC50 under setting [1] is greater than 300 nM. With `CC(C)(C)[C@H](NC(=O)c1cc2cc(C(F)(F)P(=O)(O)O)ccc2s1)C(=O)N1CCC[C@H]1C(=O)N(CC(=O)NCCCCC#Cc1cccc2c1CN(C1CCC(=O)NC1=O)C2=O)c1ccc(Cl)cc1` (stereo partly drawn) [Compound 641, ((2-(((2S)-1-((2S)-2-((4-chlorophenyl)(2-((6-(2-(2,6-dioxopiperidin-3-yl)-1-oxoisoindolin-4-yl)hex-5-yn-1-yl)amino)-2-oxoethyl)carbamoyl)pyrrolidin-1-yl)-3,3-dimethyl-1-oxobutan-2-yl)carbamoyl)benzo[b]thiophen-5-yl)difluoromethyl)phosphonic acid], the DC50 is, setting by setting: under setting [1], greater than 300 nM; under setting [2], greater than 10000 nM. Consider `CC(C)(C)[C@H](NC(=O)c1cc2cc(C(F)(F)P(=O)(O)O)ccc2s1)C(=O)N1CCC[C@H]1C(=O)N(CCC(=O)NCCCC#Cc1cccc2c1CN(C1CCC(=O)NC1=O)C2=O)c1ccc(C2CCOCC2)cc1` (stereo partly drawn) [Compound 651, ((2-(((2S)-1-((2S)-2-((3-((5-(2-(2,6-dioxopiperidin-3-yl)-1-oxoisoindolin-4-yl)pent-4-yn-1-yl)amino)-3-oxopropyl)(4-(tetrahydro-2H-pyran-4-yl)phenyl)carbamoyl)pyrrolidin-1-yl)-3,3-dimethyl-1-oxobutan-2-yl)carbamoyl)benzo[b]thiophen-5-yl)difluoromethyl)phosphonic acid], for which the DC50 under setting [1] is greater than 300 nM and the 50% degradation concentration (DC50) under setting [2] is greater than 10000 nM. In the same order, the values of `CC(C)(C)[C@H](NC(=O)c1cc2cc(C(F)(F)P(=O)(O)O)ccc2s1)C(=O)N1CCC[C@H]1C(=O)N(CCC(=O)NCCCC#Cc1cccc2c1CN(C1CCC(=O)NC1=O)C2=O)c1ccc(C(F)(F)F)cc1` (stereo partly drawn) [Compound 644, ((2-(((2S)-1-((2S)-2-((3-((5-(2-(2,6-dioxopiperidin-3-yl)-1-oxoisoindolin-4-yl)pent-4-yn-1-yl)amino)-3-oxopropyl)(4-(trifluoromethyl)phenyl)carbamoyl)pyrrolidin-1-yl)-3,3-dimethyl-1-oxobutan-2-yl)carbamoyl)benzo[b]thiophen-5-yl)difluoromethyl)phosphonic acid] are greater than 300 nM and 1000 to 10000 nM.

For the molecule `CC(C)(C)[C@H](NC(=O)c1cc2cc(C(F)(F)P(=O)(O)O)ccc2s1)C(=O)N1CCC[C@H]1C(=O)N(CCC(=O)NCCCCC#Cc1cccc2c1CN(C1CCC(=O)NC1=O)C2=O)c1ccc(Cl)c(F)c1` (stereo partly drawn) [Compound 639, ((2-(((2S)-1-((2S)-2-((4-chloro-3-fluorophenyl)(3-((6-(2-(2,6-dioxopiperidin-3-yl)-1-oxoisoindolin-4-yl)hex-5-yn-1-yl)amino)-3-oxopropyl)carbamoyl)pyrrolidin-1-yl)-3,3-dimethyl-1-oxobutan-2-yl)carbamoyl)benzo[b]thiophen-5-yl)difluoromethyl)phosphonic acid], the DC50 by setting is: under setting [1], greater than 300 nM; under setting [2], greater than 10000 nM.
